According to US20230123334A1, “AMINO LIPID COMPOUND, PREPARATION METHOD THEREFOR, AND APPLICATION THEREOF” (SHENZHEN SHENXIN BIOTECHNOLOGY CO., LTD., priority 2020, published 2023):

system: HEK293 cells; assay: Preliminary screening as mRNA vectors, EGFP mRNA transfection of HEK293 cells; type: cell-based; conditions: EGFP mRNA 50 ng per well, 96-well plates; percentage of GFP fluorescent cells relative to total number of cells (Hoechst)
Summary of the method: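 Each well of HEK293 cells received 50 ng of EGFP mRNA. Efficiency was expressed as percent GFP-expressing cells over Hoechst-defined total cell number.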

| Structure (SMILES) | Absolute mRNA transfection efficiency in HEK293 cells |
| --- | --- |
| CCCCCCCCCCCCCCCCSc1nc(NCCCCCCCCCCCCC)nc(NCCN2CCOCC2)n1 [Compound D2S16N13] | 0.0% |
| CCCCCCCCCCCCCCCCSc1nc(NCCCCCCCCCCCCCCC)nc(NCCN2CCOCC2)n1 [Compound D2S16N15] | 0.2% |
| CCCCCCCCCCCCCCCCNc1nc(NCCN2CCOCC2)nc(SCCCCCCCCCCCCCCCC)n1 [Compound D2S16N16] | 0.0% |
| CCCCCCCCCCCCCCCCCCNc1nc(NCCN2CCOCC2)nc(SCCCCCCCCCCCCCCCC)n1 [Compound D2S16N18] | 0.0% |
| CCCCCCCCCCCCCCCCCCSc1nc(NCCCCCC)nc(NCCN2CCOCC2)n1 [Compound D2S18N6] | 0.4% |
| CCCCCCCCCCCCCCCCCCSc1nc(NCCCCCCC)nc(NCCN2CCOCC2)n1 [Compound D2S18N7] | 1.0% |
| CCCCCCCCCCCCCCCCCCSc1nc(NCCCCCCCC)nc(NCCN2CCOCC2)n1 [Compound D2S18N8] | 3.1% |
| CCCCCCCCCCCCCCCCCCSc1nc(NCCCCCCCCC)nc(NCCN2CCOCC2)n1 [Compound D2S18N9] | 0.4% |
| CCCCCCCCCCCCCCCCCCSc1nc(NCCCCCCCCCCC)nc(NCCN2CCOCC2)n1 [Compound D2S18N11] | 0.5% |
| CCCCCCCCCCCCCCCCCCSc1nc(NCCCCCCCCCCCC)nc(NCCN2CCOCC2)n1 [Compound D2S18N12] | 2.3% |
| CCCCCCCCCCCCCCCCCCSc1nc(NCCCCCCCCCCCCC)nc(NCCN2CCOCC2)n1 [Compound D2S18N13] | 0.0% |
| CCCCCCCCCCCCCCCCCCSc1nc(NCCCCCCCCCCCCCCC)nc(NCCN2CCOCC2)n1 [Compound D2S18N15] | 0.0% |
| CCCCCCCCCCCCCCCCCCSc1nc(NCCCCCCCCCCCCCCCC)nc(NCCN2CCOCC2)n1 [Compound D2S18N16] | 0.0% |
| CCCCCCCCCCCCCCCCCCNc1nc(NCCN2CCOCC2)nc(SCCCCCCCCCCCCCCCCCC)n1 [Compound D2S18N18] | 0.0% |
| CCCCCCNc1nc(NCCN2CCCC2)nc(SCCCCCC)n1 [Compound D3S6N6] | 0.1% |
| CCCCCCCNc1nc(NCCN2CCCC2)nc(SCCCCCC)n1 [Compound D3S6N7] | 0.2% |
| CCCCCCCCNc1nc(NCCN2CCCC2)nc(SCCCCCC)n1 [Compound D3S6N8] | 0.0% |
| CCCCCCCCCNc1nc(NCCN2CCCC2)nc(SCCCCCC)n1 [Compound D3S6N9] | 0.3% |
| CCCCCCCCCCCNc1nc(NCCN2CCCC2)nc(SCCCCCC)n1 [Compound D3S6N11] | 0.7% |
| CCCCCCCCCCCCNc1nc(NCCN2CCCC2)nc(SCCCCCC)n1 [Compound D3S6N12] | 4.1% |
| CCCCCCCCCCCCCNc1nc(NCCN2CCCC2)nc(SCCCCCC)n1 [Compound D3S6N13] | 7.7% |
| CCCCCCCCCCCCCCCNc1nc(NCCN2CCCC2)nc(SCCCCCC)n1 [Compound D3S6N15] | 14.4% |
| CCCCCCCCCCCCCCCCNc1nc(NCCN2CCCC2)nc(SCCCCCC)n1 [Compound D3S6N16] | 37.3% |

| Structure (SMILES) | Absolute mRNA transfection efficiency in HEK293 cells |
| --- | --- |
| CCCCCCCCCCCCCCCCCCNc1nc(NCCN2CCCC2)nc(SCCCCCC)n1 [Compound D3S6N18] | 32.5% |
| CCCCCCSc1nc(NCCN2CCCC2)nc(SCCCCCC)n1 [Compound D3S6S6] | 1.9% |
| CCCCCCCSc1nc(NCCN2CCCC2)nc(SCCCCCC)n1 [Compound D3S6S7] | 1.3% |
| CCCCCCCCSc1nc(NCCN2CCCC2)nc(SCCCCCC)n1 [Compound D3S6S8] | 1.6% |
| CCCCCCCCCSc1nc(NCCN2CCCC2)nc(SCCCCCC)n1 [Compound D3S6S9] | 2.6% |
| CCCCCCCCCCSc1nc(NCCN2CCCC2)nc(SCCCCCC)n1 [Compound D3S6S10] | 2.5% |
| CCCCCCCCCCCSc1nc(NCCN2CCCC2)nc(SCCCCCC)n1 [Compound D3S6S11] | 0.7% |
| CCCCCCCCCCCCSc1nc(NCCN2CCCC2)nc(SCCCCCC)n1 [Compound D3S6S12] | 1.0% |
| CCCCCCCCCCCCCCSc1nc(NCCN2CCCC2)nc(SCCCCCC)n1 [Compound D3S6S14] | 0.3% |
| CCCCCCCCCCCCCCCSc1nc(NCCN2CCCC2)nc(SCCCCCC)n1 [Compound D3S6S15] | 12.0% |
| CCCCCCCCCCCCCCCCSc1nc(NCCN2CCCC2)nc(SCCCCCC)n1 [Compound D3S6S16] | 16.9% |
| CCCCCCCCCCCCCCCCCCSc1nc(NCCN2CCCC2)nc(SCCCCCC)n1 [Compound D3S6S18] | 36.8% |
| CCCCCCCSc1nc(NCCCCCC)nc(NCCN2CCCC2)n1 [Compound D3S7N6] | 5.8% |
| CCCCCCCNc1nc(NCCN2CCCC2)nc(SCCCCCCC)n1 [Compound D3S7N7] | 6.6% |
| CCCCCCCCNc1nc(NCCN2CCCC2)nc(SCCCCCCC)n1 [Compound D3S7N8] | 1.3% |
| CCCCCCCCCNc1nc(NCCN2CCCC2)nc(SCCCCCCC)n1 [Compound D3S7N9] | 2.8% |
| CCCCCCCCCCCNc1nc(NCCN2CCCC2)nc(SCCCCCCC)n1 [Compound D3S7N11] | 9.6% |
| CCCCCCCCCCCCNc1nc(NCCN2CCCC2)nc(SCCCCCCC)n1 [Compound D3S7N12] | 6.5% |
| CCCCCCCCCCCCCNc1nc(NCCN2CCCC2)nc(SCCCCCCC)n1 [Compound D3S7N13] | 19.1% |
| CCCCCCCCCCCCCCCNc1nc(NCCN2CCCC2)nc(SCCCCCCC)n1 [Compound D3S7N15] | 33.7% |
| CCCCCCCCCCCCCCCCNc1nc(NCCN2CCCC2)nc(SCCCCCCC)n1 [Compound D3S7N16] | 25.0% |
| CCCCCCCCCCCCCCCCCCNc1nc(NCCN2CCCC2)nc(SCCCCCCC)n1 [Compound D3S7N18] | 39.8% |
| CCCCCCCSc1nc(NCCN2CCCC2)nc(SCCCCCCC)n1 [Compound D3S7S7] | 12.2% |

| Structure (SMILES) | Absolute mRNA transfection efficiency in HEK293 cells |
| --- | --- |
| CCCCCCCCSc1nc(NCCN2CCCC2)nc(SCCCCCCC)n1 [Compound D3S7S8] | 2.7% |
| CCCCCCCCCSc1nc(NCCN2CCCC2)nc(SCCCCCCC)n1 [Compound D3S7S9] | 12.6% |
| CCCCCCCCCCSc1nc(NCCN2CCCC2)nc(SCCCCCCC)n1 [Compound D3S7S10] | 3.3% |
| CCCCCCCCCCCSc1nc(NCCN2CCCC2)nc(SCCCCCCC)n1 [Compound D3S7S11] | 11.4% |
| CCCCCCCCCCCCSc1nc(NCCN2CCCC2)nc(SCCCCCCC)n1 [Compound D3S7S12] | 5.4% |
| CCCCCCCCCCCCCCSc1nc(NCCN2CCCC2)nc(SCCCCCCC)n1 [Compound D3S7S14] | 14.6% |
| CCCCCCCCCCCCCCCSc1nc(NCCN2CCCC2)nc(SCCCCCCC)n1 [Compound D3S7S15] | 12.0% |
| CCCCCCCCCCCCCCCCSc1nc(NCCN2CCCC2)nc(SCCCCCCC)n1 [Compound D3S7S16] | 11.6% |
| CCCCCCCCCCCCCCCCCCSc1nc(NCCN2CCCC2)nc(SCCCCCCC)n1 [Compound D3S7S18] | 7.9% |
| CCCCCCCCSc1nc(NCCCCCC)nc(NCCN2CCCC2)n1 [Compound D3S8N6] | 2.6% |
| CCCCCCCCSc1nc(NCCCCCCC)nc(NCCN2CCCC2)n1 [Compound D3S8N7] | 0.7% |
| CCCCCCCCNc1nc(NCCN2CCCC2)nc(SCCCCCCCC)n1 [Compound D3S8N8] | 3.0% |
| CCCCCCCCCNc1nc(NCCN2CCCC2)nc(SCCCCCCCC)n1 [Compound D3S8N9] | 3.2% |
| CCCCCCCCCCCNc1nc(NCCN2CCCC2)nc(SCCCCCCCC)n1 [Compound D3S8N11] | 6.6% |
| CCCCCCCCCCCCNc1nc(NCCN2CCCC2)nc(SCCCCCCCC)n1 [Compound D3S8N12] | 24.6% |
| CCCCCCCCCCCCCNc1nc(NCCN2CCCC2)nc(SCCCCCCCC)n1 [Compound D3S8N13] | 35.8% |
| CCCCCCCCCCCCCCCNc1nc(NCCN2CCCC2)nc(SCCCCCCCC)n1 [Compound D3S8N15] | 21.8% |
| CCCCCCCCCCCCCCCCNc1nc(NCCN2CCCC2)nc(SCCCCCCCC)n1 [Compound D3S8N16] | 14.3% |
| CCCCCCCCCCCCCCCCCCNc1nc(NCCN2CCCC2)nc(SCCCCCCCC)n1 [Compound D3S8N18] | 28.6% |
| CCCCCCCCSc1nc(NCCN2CCCC2)nc(SCCCCCCCC)n1 [Compound D3S8S8] | 26.1% |
| CCCCCCCCCSc1nc(NCCN2CCCC2)nc(SCCCCCCCC)n1 [Compound D3S8S9] | 11.6% |
| CCCCCCCCCCSc1nc(NCCN2CCCC2)nc(SCCCCCCCC)n1 [Compound D3S8S10] | 12.0% |
| CCCCCCCCCCCSc1nc(NCCN2CCCC2)nc(SCCCCCCCC)n1 [Compound D3S8S11] | 4.9% |
